Legend:
Mus musculus [1] = assay: In vivo biodistribution in NMRI (Naval Medical Research Institute) mice bone at the dose of 0.15-0.2 nmol at 2 min; type: ADME, organism-based, Bone element
Mus musculus [2] = assay: In vivo biodistribution in NMRI (Naval Medical Research Institute) mice bone at the dose of 0.15-0.2 nmol at 40 min; type: ADME, organism-based, Bone element
Mus musculus [3] = assay: In vivo biodistribution in NMRI (Naval Medical Research Institute) mice bone at the dose of 0.15-0.2 nmol at 5 min; type: ADME, organism-based, Bone element
Mus musculus [4] = assay: In vivo biodistribution in NMRI (Naval Medical Research Institute) mice bone at the dose of 0.15-0.2 nmol at 60 min; type: ADME, organism-based, Bone element; conditions: 1 h
Mus musculus [5] = assay: In vivo biodistribution in NMRI (Naval Medical Research Institute) mice brain at the dose of 0.15-0.2 nmol at 10 min; type: ADME, organism-based
Mus musculus [6] = assay: In vivo biodistribution in NMRI (Naval Medical Research Institute) mice brain at the dose of 0.15-0.2 nmol at 20 min; type: ADME, organism-based
Mus musculus [7] = assay: In vivo biodistribution in NMRI (Naval Medical Research Institute) mice brain at the dose of 0.15-0.2 nmol at 2 min; type: ADME, organism-based
Mus musculus [8] = assay: In vivo biodistribution in NMRI (Naval Medical Research Institute) mice brain at the dose of 0.15-0.2 nmol at 40 min; type: ADME, organism-based
Mus musculus [9] = assay: In vivo biodistribution in NMRI (Naval Medical Research Institute) mice brain at the dose of 0.15-0.2 nmol at 5 min; type: ADME, organism-based
Mus musculus [10] = assay: In vivo biodistribution in NMRI (Naval Medical Research Institute) mice brain at the dose of 0.15-0.2 nmol at 60 min; type: ADME, organism-based; conditions: 1 h
Mus musculus [11] = assay: In vivo biodistribution in NMRI (Naval Medical Research Institute) mice heart at the dose of 0.15-0.2 nmol at 10 min; type: ADME, organism-based
Mus musculus [12] = assay: In vivo biodistribution in NMRI (Naval Medical Research Institute) mice heart at the dose of 0.15-0.2 nmol at 20 min; type: ADME, organism-based
Mus musculus [13] = assay: In vivo biodistribution in NMRI (Naval Medical Research Institute) mice heart at the dose of 0.15-0.2 nmol at 2 min; type: ADME, organism-based
Mus musculus [14] = assay: In vivo biodistribution in NMRI (Naval Medical Research Institute) mice heart at the dose of 0.15-0.2 nmol at 40 min; type: ADME, organism-based
Mus musculus [15] = assay: In vivo biodistribution in NMRI (Naval Medical Research Institute) mice heart at the dose of 0.15-0.2 nmol at 5 min; type: ADME, organism-based
Mus musculus [16] = assay: In vivo biodistribution in NMRI (Naval Medical Research Institute) mice heart at the dose of 0.15-0.2 nmol at 60 min; type: ADME, organism-based; conditions: 1 h
Mus musculus [17] = assay: In vivo biodistribution in NMRI (Naval Medical Research Institute) mice intestine at the dose of 0.15-0.2 nmol at 10 min; type: ADME, organism-based
Mus musculus [18] = assay: In vivo biodistribution in NMRI (Naval Medical Research Institute) mice intestine at the dose of 0.15-0.2 nmol at 20 min; type: ADME, organism-based
Mus musculus [19] = assay: In vivo biodistribution in NMRI (Naval Medical Research Institute) mice intestine at the dose of 0.15-0.2 nmol at 2 min; type: ADME, organism-based
Mus musculus [20] = assay: In vivo biodistribution in NMRI (Naval Medical Research Institute) mice intestine at the dose of 0.15-0.2 nmol at 40 min; type: ADME, organism-based
Mus musculus [21] = assay: In vivo biodistribution in NMRI (Naval Medical Research Institute) mice intestine at the dose of 0.15-0.2 nmol at 5 min; type: ADME, organism-based
Mus musculus [22] = assay: In vivo biodistribution in NMRI (Naval Medical Research Institute) mice intestine at the dose of 0.15-0.2 nmol at 60 min; type: ADME, organism-based; conditions: 1 h
Mus musculus [23] = assay: In vivo biodistribution in NMRI (Naval Medical Research Institute) mice kidney at the dose of 0.15-0.2 nmol at 10 min; type: ADME, organism-based
Mus musculus [24] = assay: In vivo biodistribution in NMRI (Naval Medical Research Institute) mice kidney at the dose of 0.15-0.2 nmol at 20 min; type: ADME, organism-based
Mus musculus [25] = assay: In vivo biodistribution in NMRI (Naval Medical Research Institute) mice kidney at the dose of 0.15-0.2 nmol at 2 min; type: ADME, organism-based
Mus musculus [26] = assay: In vivo biodistribution in NMRI (Naval Medical Research Institute) mice kidney at the dose of 0.15-0.2 nmol at 40 min; type: ADME, organism-based
Mus musculus [27] = assay: In vivo biodistribution in NMRI (Naval Medical Research Institute) mice kidney at the dose of 0.15-0.2 nmol at 5 min; type: ADME, organism-based
Mus musculus [28] = assay: In vivo biodistribution in NMRI (Naval Medical Research Institute) mice kidney at the dose of 0.15-0.2 nmol at 60 min; type: ADME, organism-based; conditions: 1 h
Mus musculus [29] = assay: In vivo biodistribution in NMRI (Naval Medical Research Institute) mice blood at the dose of 0.15-0.2 nmol at 10 min; type: ADME, organism-based
Mus musculus [30] = assay: In vivo biodistribution in NMRI (Naval Medical Research Institute) mice blood at the dose of 0.15-0.2 nmol at 20 min; type: ADME, organism-based
Mus musculus [31] = assay: In vivo biodistribution in NMRI (Naval Medical Research Institute) mice blood at the dose of 0.15-0.2 nmol at 40 min; type: ADME, organism-based
Mus musculus [32] = assay: In vivo biodistribution in NMRI (Naval Medical Research Institute) mice blood at the dose of 0.15-0.2 nmol at 5 min; type: ADME, organism-based

ID/g (Mus musculus [1]): 0.37%
ID/g (Mus musculus [2]): 2.18%
ID/g (Mus musculus [3]): 1.4%
ID/g (Mus musculus [4]): 2.27%
ID/g (Mus musculus [5]): 2.44%
ID/g (Mus musculus [6]): 2.39%
ID/g (Mus musculus [7]): 2.45%
ID/g (Mus musculus [8]): 2.52%
ID/g (Mus musculus [9]): 2.37%
ID/g (Mus musculus [10]): 1.55%
ID/g (Mus musculus [11]): 3.83%
ID/g (Mus musculus [12]): 4.11%
ID/g (Mus musculus [13]): 4.64%
ID/g (Mus musculus [14]): 4.23%
ID/g (Mus musculus [15]): 3.71%
ID/g (Mus musculus [16]): 1.63%
ID/g (Mus musculus [17]): 3.08%
ID/g (Mus musculus [18]): 3.51%
ID/g (Mus musculus [19]): 2.07%
ID/g (Mus musculus [20]): 3.74%
ID/g (Mus musculus [21]): 2.21%
ID/g (Mus musculus [22]): 9.13%
ID/g (Mus musculus [23]): 6.1%
ID/g (Mus musculus [24]): 6.05%
ID/g (Mus musculus [25]): 4.68%
ID/g (Mus musculus [26]): 5.95%
ID/g (Mus musculus [27]): 3.81%
ID/g (Mus musculus [28]): 2.63%
ID/g (Mus musculus [29]): 5.21%
ID/g (Mus musculus [30]): 4.13%
ID/g (Mus musculus [31]): 3.92%
ID/g (Mus musculus [32]): 6.53%
SMILES: CCCn1c(=O)c2nc(C3CCCC3)[nH]c2n(CCC[18F])c1=O

Source: ChEMBL document CHEMBL1135648, “Synthesis and evaluation of no-carrier-added 8-cyclopentyl-3-(3-[(18)F]fluoropropyl)-1-propylxanthine ([(18)F]CPFPX): a potent and selective A(1)-adenosine receptor antagonist for in vivo imaging” (J Med Chem, 2002)
